From US11912645B2, “Lipopeptide compounds for the treatment of pain disorders” (INSERM (Institut National de la Santé et de la Recherche …, priority 2017, dated 2024)

Columns and labels:
[1] = test system: mouse dorsal root ganglia (DRG) neurons; assay: Calcium mobilization in primary DRG sensory neurons, basal (unstimulated); assay type: cell-based; conditions: 10 μM
Protocol: Male C57B16 mice (6-8 weeks) were used to produce primary cultures of dorsal root ganglia (DRG) sensory neurons for calcium flux experiments, and to perform studies of colorectal distention and intestinal isotonic contraction. All procedures were approved by Institutional Animal Care Committees (CEEA 122).
To determine whether C12-Asn-GABA or C12-Asn-BABA is capable of signaling to sensory nerves, calcium mobilization studies were performed on primary cultures of mouse dorsal root ganglia (DRG) neurons. […] The same experiments were thereafter performed in neurons activated by either an agonist of the receptor calcium channel TRPV1 (capsaicin) or by a mix of agonists (histamine, serotonin and bradykinin) for G protein coupled receptors (GPCR) implicated in visceral hypersensitivity. Exposure of neurons to either capsaicin (125 nM) or the mix of GPCR agonists (histamine, bradykinin, serotonin, 10 μM each) induced an increase in calcium flux as shown by the higher % of responding neurons and amplitude of the response (ΔF/F) compared to the vehicle (FIG. 4A, 4B). […] To investigate whether the inhibitory effect of C12-Asn-GABA was associated to the GABA residue, neurons were treated with saclofen (10, 50, and 100 μM), a competitive antagonist of the GABAB receptor. […]

[2] = test system: mouse sensory neurons activated by mix of GPCR agonists (histamine, serotonin, bradykinin); assay: Calcium flux in sensory neurons activated by mix of GPCR agonists; assay type: cell-based; conditions: serotonin 10 μM each, pretreatment with increasing amounts of compound
Protocol: FIG. 4: C12-Asn-GABA inhibits neuronal activation via the GABA B receptor. Amplitude of intracellular calcium mobilization (ΔF/F; right panel) in mouse sensory neurons and percentage of responding neurons (left panel) pretreated with increasing amounts of C12-Asn-GABA (black circle) or vehicle (HBSS; white circle) and treated with capsaicin (125 nM; A) or a mix of G protein coupled receptor agonists (histamine, serotonin and bradykinin 10 μM each; B). Data are represented as mean±SEM; n=4 independent experiments of 3 wells per condition and 30-80 neurons per well. […] Percentage of responding neurons pretreated with increasing amounts of saclofen (black circle) or vehicle (HBSS; white circle) and treated with C12-Asn-GABA (10 μM) and capsaicin (125 nM; C) or a mix of G protein coupled receptor agonist (histamine, serotonin and bradykinin 10 μM each; D). Data are represented as mean±SEM; n=4 independent experiments of 3 wells per condition and 30-80 neurons per well.
Male C57B16 mice (6-8 weeks) were used to produce primary cultures of dorsal root ganglia (DRG) sensory neurons for calcium flux experiments, and to perform studies of colorectal distention and intestinal isotonic contraction. All procedures were approved by Institutional Animal Care Committees (CEEA 122). […]

[3] = Colon and blood levels after intracolonic administration (LC-MS/MS); assay type: in vivo, mouse; conditions: intracolonic 10 μM; 30 minutes or 4 hours; vs vehicle
Protocol: (§1) FIG. 6: C12-Asn-GABA inhibits capsaicin-induced visceral hypersensitivity without altering Intestinal contraction. Mice received intracolonic administration of C12-Asn-GABA (10 μM; black symbols) or vehicle (40% ethanol; white symbols) and 30 minutes or 4 hours later colon (A) and blood (B) were harvested in order to quantify C12-Asn-GABA by LC-MS/MS. Data are expressed as mean±SEM, n=8 mice per group. […] Mice received intracolonic administration of C12-Asn-GABA (10 μM; black symbols) or vehicle (40% ethanol; white symbols) and 30 minutes or 4 hours later an intracolonic administration of capsaicin (100 μg/mouse; square) or its vehicle (40% ethanol; circle). Fifteen minutes after capsaicin or vehicle treatment, visceromotor response (VMR) to increasing pressures of colorectal distension was performed. Data are expressed as mean±SEM, n=7-8 mice per group. […] Ex vivo measurement of duodenal mechanical contraction frequency (B) and amplitude (C) in response to Krebs-Ringer solution (control; white bar), to DMSO 0.2% (vehicle; gray bar) or to C12-Asn-GABA (10 μM; black bar). Data are expressed as mean±SEM, n=5-6 per group. […]
In a first set of experiment, we assessed the ability of the C12-Asn-GABA to cross the epithelial barrier, in vivo. […] The impact of C12-Asn-GABA on visceral hypersensitivity was assessed by measuring the visceromotor responses (VMR) to colorectal distension (CRD). […]

duodenal preparations = assay: Ex vivo duodenal mechanical contraction (isotonic sensors); set-up: species or system mouse; conditions: 10 μM, vs control and vehicle
Protocol: as §1
IBS patients are characterized by diverse alterations of gut transit: diarrhea, constipation or mixed^1, thus a drug impairing bowel motility could limit its putative use in this pathology. We evaluated whether C12-Asn-GABA was capable of impairing duodenal motility. […]

CCCCCCCCCCCC(=O)NC(CC(N)=O)C(=O)NCCCC(=O)O (stereo not drawn) [C12-Asn-GABA, C11 C(O)-Asn-gamma-aminobutyric acid]
calcium mobilization under basal (unstimulated) conditions [1]: does not induce calcium mobilization
calcium flux increase induced by mix of GPCR agonists (% responding neurons, amplitude ΔF/F) [2]: prevented by C12-Asn-GABA pretreatment in a dose-dependent manner
concentration in the blood [3]: increased the concentration
concentration in the colonic tissue [3]: increased the concentration
amplitude of intestinal contractions (duodenal preparations): nor the amplitude of intestinal contractions
frequency of duodenal contractions (duodenal preparations): impairs neither the frequency of contractions
